25 compounds from patent US5916905A, “2,3-substituted pyridines for the treatment of inflammation” (G. D. Searle & Co., priority 1997, dated 1999) can be followed below.

For assay [1], the target named is T1, COX-1 (Homo sapiens, UniProt P23219).
T1 construct: A 2.0 kb fragment containing the coding region; made in house; host or cells: SF9 insect cells (baculovirus, pVL1393)
The assay is described as follows: COX-1 activity in vitro, recombinant human enzyme (PGE2 ELISA). The class given is biochemical. Particulars: human (h); 10 μM arachidonic acid, 10-20 min pre-incubation; read-out: COX-1 ID50. How it is done: (§1) The COX-2 inhibition activity of the compounds of this invention illustrated in the Examples was determined by the following methods.
(§2) Recombinant COX-1 and COX-2 were prepared as described by Gierse et al, [J. Biochem., 305, 479-84 (1995)]. A 2.0 kb fragment containing the coding region of either human or murine COX-1 or human or murine COX-2 was cloned into a BamH1 site of the baculovirus transfer vector pVL1393 (Invitrogen) to generate the baculovirus transfer vectors for COX-1 and COX-2 in a manner similar to the method of D. R. O'Reilly et al (Baculovirus Expression Vectors: A Laboratory Manual (1992)). Recombinant baculoviruses were isolated by transfecting 4 μg of baculovirus transfer vector DNA into SF9 insect cells (2×10^8) along with 200 ng of linearized baculovirus plasmid DNA by the calcium phosphate method. See M. D. Summers and G. E. Smith, A Manual of Methods for Baculovirus Vectors and Insect Cell Culture Procedures, Texas Agric. Exp. Station Bull. 1555 (1987). Recombinant viruses were purified by three rounds of plaque purification and high titer (10^7 -10^8 pfu/ml) stocks of virus were prepared. For large scale production, SF9 insect cells were infected in 10 liter fermentors (0.5×10^6 /ml) with the recombinant baculovirus stock such that the multiplicity of infection was 0.1. After 72 hours the cells were centrifuged and the cell pellet homogenized in Tris/Sucrose (50 mM: 25%, pH 8.0) containing 1% 3-[(3-cholamidopropyl)dimethylammonio]-1-propanesulfonate (CHAPS). The homogenate was centrifuged at 10,000×G for 30 minutes, and the resultant supernatant was stored at -80° C. before being assayed for COX activity.
(§3) b. Assay for COX-1 and COX-2 activity COX activity was assayed as PGE2 formed/μg protein/time using an ELISA to detect the prostaglandin released. CHAPS-solubilized insect cell membranes containing the appropriate COX enzyme were incubated in a potassium phosphate buffer (50 mM, pH 8.0) containing epinephrine, phenol, and heme with the addition of arachidonic acid (10 μM). Compounds were pre-incubated with the enzyme for 10-20 minutes prior to the addition of arachidonic acid. Any reaction between the arachidonic acid and the enzyme was stopped after ten minutes at 37° C./room temperature by transferring 40 μl of reaction mix into 160 μl ELISA buffer and 25 μM indomethacin. The PGE2 formed was measured by standard ELISA technology (Cayman Chemical).

Assay [2] deals with T2, COX-2 (Homo sapiens, UniProt P35354).
T2 construct: A 2.0 kb fragment containing the coding region; made in house; host or cells: SF9 insect cells (baculovirus, pVL1393)
T2 sequence (P35354 18-604): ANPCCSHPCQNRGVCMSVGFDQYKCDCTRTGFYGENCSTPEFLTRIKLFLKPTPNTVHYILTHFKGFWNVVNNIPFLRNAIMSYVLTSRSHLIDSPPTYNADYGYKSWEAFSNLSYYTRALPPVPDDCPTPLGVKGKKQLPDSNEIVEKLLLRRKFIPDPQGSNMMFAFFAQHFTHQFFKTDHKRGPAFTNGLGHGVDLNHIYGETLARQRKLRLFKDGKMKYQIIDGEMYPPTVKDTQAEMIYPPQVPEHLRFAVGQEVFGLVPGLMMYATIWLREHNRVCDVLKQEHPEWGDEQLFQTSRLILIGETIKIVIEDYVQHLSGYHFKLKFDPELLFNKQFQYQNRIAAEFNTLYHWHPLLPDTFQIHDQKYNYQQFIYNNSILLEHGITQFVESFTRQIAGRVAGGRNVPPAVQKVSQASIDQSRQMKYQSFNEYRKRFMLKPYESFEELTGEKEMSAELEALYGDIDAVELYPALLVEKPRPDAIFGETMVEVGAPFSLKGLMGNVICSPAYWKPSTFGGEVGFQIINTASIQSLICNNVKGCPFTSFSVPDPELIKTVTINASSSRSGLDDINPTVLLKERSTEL
The assay can be described thus: COX-2 activity in vitro, recombinant human enzyme (PGE2 ELISA). Conditions: human (h); 10 μM arachidonic acid, 10-20 min pre-incubation; read-out: COX-2 ID50. The class given is biochemical. As for the experimental part:
as §1, §2, §3

T1 sequence (P23219 24-599): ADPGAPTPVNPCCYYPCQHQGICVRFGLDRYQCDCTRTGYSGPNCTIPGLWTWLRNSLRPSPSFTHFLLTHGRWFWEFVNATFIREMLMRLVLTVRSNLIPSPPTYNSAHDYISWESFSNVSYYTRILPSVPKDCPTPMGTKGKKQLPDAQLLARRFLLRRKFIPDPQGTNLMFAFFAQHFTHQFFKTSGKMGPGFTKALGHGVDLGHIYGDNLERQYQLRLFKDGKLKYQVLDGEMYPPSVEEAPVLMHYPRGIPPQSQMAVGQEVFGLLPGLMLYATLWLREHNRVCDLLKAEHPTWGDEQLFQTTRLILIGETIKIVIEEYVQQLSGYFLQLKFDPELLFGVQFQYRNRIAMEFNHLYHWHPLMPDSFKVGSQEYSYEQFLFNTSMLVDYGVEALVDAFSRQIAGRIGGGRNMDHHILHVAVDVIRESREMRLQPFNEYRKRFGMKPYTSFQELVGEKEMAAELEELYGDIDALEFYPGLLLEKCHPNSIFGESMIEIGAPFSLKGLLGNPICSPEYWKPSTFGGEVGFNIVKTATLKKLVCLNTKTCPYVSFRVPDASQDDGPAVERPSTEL

For `CSc1nc(-c2ccc(F)cc2)c(-c2ccc(S(C)(=O)=O)cc2)cc1C#N` [Example 13, 6-(4-Fluorophenyl)-5-[4-(methylsulfonyl)phenyl]-2-(methylthio)pyridine-3-carbonitrile], the IC50 in assay [1] was above 100000 nM; in assay [2], 200 nM.

For the compound `CCCCOc1nc(-c2ccc(F)cc2)c(-c2ccc(S(C)(=O)=O)cc2)cc1C(C)OC(=O)CCC` (racemic) [Example 44, (+/-) 1-[2-Butoxy-6-(4-fluorophenyl)-5-[4-(methylsulfonyl)phenyl]pyridin-3-yl]ethylbutanoate], the IC50 in assay [1] is above 100000 nM; in assay [2], 2000 nM.

In the case of `CCCCCCOc1nc(-c2ccc(F)cc2)c(-c2ccc(S(C)(=O)=O)cc2)cc1C#N` [Example 18, 6-(4-Fluorophenyl)-2-hexyloxy-5-[4-(methylsulfonyl)phenyl]pyridine-3-carbonitrile], the IC50 in assay [1] is above 100000 nM; in assay [2], 200 nM.

Turning to `CCCCOc1nc(-c2ccc(F)cc2)c(-c2ccc(S(C)(=O)=O)cc2)cc1CN` [Example 32, 2-Butoxy-6-(4-fluorophenyl)-5-[4-(methylsulfonyl)phenyl]pyridine-3-methylamine], the figures for the IC50 in assay [1] and in assay [2] were above 100000 nM and 1600 nM, respectively.

With `CCCCOc1nc(-c2ccc(F)cc2)c(-c2ccc(S(C)(=O)=O)cc2)cc1CN(C)C` [Example 37, 2-Butoxy-6-(4-fluorophenyl)-N,N-dimethyl-5-[4-(methylsulfonyl)phenyl]pyridine-3-methanamine], the IC50 in assay [1] is above 100000 nM; in assay [2], 800 nM.

Turning to `CCCCOc1nc(-c2ccc(F)cc2)c(-c2ccc(S(C)(=O)=O)cc2)cc1CNC(C)=O` [Example 33], the IC50 in assay [1] was above 100000 nM; in assay [2], 1400 nM.

On to `CCCCOc1nc(-c2ccc(F)cc2)c(-c2ccc(S(C)(=O)=O)cc2)cc1CO` [Example 29, 2-Butoxy-6-(4-fluorophenyl)-5-[4-(methylsulfonyl)phenyl]pyridine-3-methanol], for which the figures for the IC50 in assay [1] and in assay [2] were above 100000 nM and below 100 nM, respectively.

`CS(=O)(=O)c1ccc(-c2ccc(Cl)nc2-c2ccc(F)cc2)cc1` [Example 1, 2-chloro-6-(4-fluorophenyl)-5-[4-(methylsulfonyl)phenyl]pyridine]: the IC50 is above 100000 nM in assay [1] and 29000 nM in assay [2].

For `CCCCOc1nc(-c2ccc(F)cc2)c(-c2ccc(S(C)(=O)=O)cc2)cc1C#N` [Example 14, 2-Butoxy-6-(4-fluorophenyl)-5-[4-(methylsulfonyl)phenyl]pyridine-3-carbonitrile], the IC50 in assay [1] was above 100000 nM; in assay [2], below 100 nM.

Take `CCCCOc1nc(-c2ccc(F)cc2)c(-c2ccc(S(N)(=O)=O)cc2)cc1C#N` [Example 28, 4-[6-butoxy-4-cyano-2-(4-Fluorophenyl)-3-pyridine]benzenesulfonamide]: the IC50 in assay [1] is 200 nM; in assay [2], below 100 nM.

As for `CS(=O)(=O)c1ccc(-c2ccc(N=[N+]=[N-])nc2-c2ccc(F)cc2)cc1` [Example 6, 2-Azido-6-(4-fluorophenyl)-5-[4-(methylsulfonyl)phenyl]pyridine], the IC50 was above 100000 nM in assay [1] and 2000 nM in assay [2].

For `CCCCCOc1nc(-c2ccc(F)cc2)c(-c2ccc(S(C)(=O)=O)cc2)cc1C#N` [Example 24, 6-(4-Fluorophenyl)-5-[4-(methylsulfonyl)phenyl]-2-pentoxypyridine-3-carbonitrile], the figures for the IC50 in assay [1] and in assay [2] were above 100000 nM and below 100 nM, respectively.

Turning to `CCCCOc1nc(-c2ccc(F)cc2)c(-c2ccc(S(C)(=O)=O)cc2)cc1C(F)F` [Example 31, 2-Butoxy-3-difluoromethyl-6-(4-fluorophenyl)-5-[4-(methylsulfonyl)phenyl]pyridine], the IC50 in assay [1] is above 100000 nM; in assay [2], below 100 nM.

For `CNc1nc(-c2ccc(F)cc2)c(-c2ccc(S(C)(=O)=O)cc2)cc1C#N` [Example 16, 6-(4-Fluorophenyl)-2-(methylamino)-5-[4-(methylsulfonyl)phenyl]pyridine-3-carbonitrile], the IC50 is above 100000 nM in assay [1] and 2300 nM in assay [2].

Take `CCCCOc1nc(-c2ccc(F)cc2)c(-c2ccc(S(C)(=O)=O)cc2)cc1C(C)O` (racemic) [Example 43, (+/-) 2-Butoxy-6-(4-fluorophenyl)-α-methyl-5-[4-(methylsulfonyl)phenyl]pyridine-3-methanol]: the IC50 came out at 28000 nM in assay [1] and 100 nM in assay [2].

On to `CSc1ccc(-c2nc(SC)ccc2-c2ccc(S(C)(=O)=O)cc2)cc1` [Example 5, 5-[4-(Methylsulfonyl)phenyl]-2-methylthio-6-[4-(methylthio)phenyl]pyridine], for which the IC50 is above 100000 nM in assay [1] and below 100 nM in assay [2].

For the compound `CN(C)c1nc(-c2ccc(F)cc2)c(-c2ccc(S(C)(=O)=O)cc2)cc1C#N` [Example 12, 2-(Dimethylamino)-6-(4-fluorophenyl)-5-[4-(methylsulfonyl)phenyl]pyridine-3-carbonitrile], the IC50 was above 100000 nM in assay [1] and 600 nM in assay [2].

Consider `CCCCOc1nc(-c2ccc(F)cc2)c(-c2ccc(S(C)(=O)=O)cc2)cc1CNC` [Example 42, 2-Butoxy-6-(4-fluorophenyl)-N-methyl-5-[4-(methylsulfonyl)phenyl]pyridine-3-methanamine], for which the IC50 in assay [1] is above 100000 nM; in assay [2], 3000 nM.

For `CCCCOc1nc(-c2ccc(F)cc2)c(-c2ccc(S(C)(=O)=O)cc2)cc1COC(C)=O` [Example 39, 2-Butoxy-6-(4-fluorophenyl)-5-[4-(methylsulfonyl)phenyl]pyridine-3-methanol, acetate], the IC50 is above 100000 nM in assay [1] and 100 nM in assay [2].

Regarding `CS(=O)(=O)c1ccc(-c2cc(C#N)c(OCCCC(F)(F)F)nc2-c2ccc(F)cc2)cc1` [Example 27, 6-(4-Fluorophenyl)-5-[4-(methylsulfonyl)phenyl]-2-(4,4,4-trifluorobutoxy)pyridine-3-carbonitrile], the IC50 is above 100000 nM in assay [1] and 200 nM in assay [2].

For `CCCCOc1nc(-c2ccc(F)cc2)c(-c2ccc(S(C)(=O)=O)cc2)cc1COC(=O)C(C)(C)C` [Example 41, [2-Butoxy-6-(4-fluorophenyl)-5-[4-(methylsulfonyl)phenyl]pyridin-3-yl]methyl-2,2-propanoate], the IC50 in assay [1] and in assay [2] was above 100000 nM throughout.

As to `CS(=O)(=O)c1ccc(-c2cc(C#N)c(OCc3ccccc3)nc2-c2ccc(F)cc2)cc1` [Example 15, 6-(4-Fluorophenyl)-5-[4-(methylsulfonyl)phenyl]-2-(phenylmethoxy)pyridine-3-carbonitrile], the results for the IC50 in assay [1] and in assay [2] were above 100000 nM and below 100 nM, respectively.

In the case of `CCCCOc1nc(-c2ccc(F)cc2)c(-c2ccc(S(C)(=O)=O)cc2)cc1COC(=O)CCC` [Example 40, [2-Butoxy-6-(4-fluorophenyl)-5-[4-(methylsulfonyl)phenyl]pyridin-3-yl]methylbutanoate], the IC50 in assay [1] was above 100000 nM; in assay [2], 100 nM.

Consider `CC(C)=CCOc1nc(-c2ccc(F)cc2)c(-c2ccc(S(C)(=O)=O)cc2)cc1C#N` [Example 25], for which the IC50 in assay [1] is above 100000 nM; in assay [2], 100 nM.

Turning to `COc1ccc(-c2nc(OC)c(C#N)cc2-c2ccc(S(C)(=O)=O)cc2)cc1` [Example 11, 2-Methoxy-6-(4-methoxyphenyl)-5-[4-(methylsulfonyl)phenyl]pyridine-3-carbonitrile], the IC50 in assay [1] was above 100000 nM; in assay [2] it was 400 nM.
